This is an account of results in patent US20200325139A1, “NEW ANTIBIOTICS TARGETING MYCOBACTERIA” (priority 2017, published 2020).

Read-outs that look alike come from different tables or passages of the source. Some results are limits rather than exact numbers.

One test deals with LdtMt2 (Mycobacterium tuberculosis, UniProt I6Y9J2). Nature of the test: Inhibition of L,D-transpeptidase by DBOs, residual nitrocefin hydrolysis. The class given is biochemical, M. tuberculosis. The settings on record: 260 min, Inhibitor/LdtMt2 molar ratio 20 (DBO 200 μM, enzyme 10 μM); 260 min at 37° C.; read-out: Residual activity of LdtMt2 following pre-incubation.
The subject of the next test is M. tuberculosis H37Rv. Nature of the test: microbe, parasite or virus in culture. The class given is cell-based. The settings on record: for MIC: Mycobacterium tuberculosis, H37RV.
The next test concerns the target BlaC (Mycobacterium tuberculosis, UniProt P9WKD3). Description: Carbamoylation of β-lactamase by DBOs, nitrocefin spectrophotometry. The class given is biochemical. The settings on record: for Carbamoylation efficacy of β-lactamase BlaC: 20° C., nitrocefin 100 μM, MES pH 6.4, highest DBO concentration 100 μM.
Another test deals with Ldtfm. Description: Inhibition of L,D-transpeptidase by DBOs, residual nitrocefin hydrolysis. The class given is biochemical, E. faecium. The settings on record: 260 min at 37° C.
For another test, the system named is M. abscessus CIP104536. Description: MIC of amoxicillin in presence or absence of DBOs, microdilution. The class given is cell-based. The settings on record: for Fold reduction in the MIC of amoxicillin: M. abscessus, DBO 15 μM; for MIC of amoxicillin / MIC: M. abscessus CIP104536, DBO at 15 μM, listed as None = amoxicillin alone; for MIC: Mycobacteroides abscessus. Background: In broth dilution the organism is exposed to a series of concentrations in liquid medium.

In a further test the test system is BlaMab. Description: Carbamoylation of β-lactamase by DBOs, nitrocefin spectrophotometry. The class given is biochemical, Mycobacterium abscessus. The settings on record: for Carbamoylation efficacy of β-lactamase BlaMab: 20° C., nitrocefin 100 μM, MES pH 6.4.
In test [1] the test system is M. tuberculosis H37Rv ΔblaC. Nature of the test: microbe, parasite or virus in culture. The class given is cell-based. The settings on record: for MIC: Mycobacterium tuberculosis, H37RV.
Test [2] deals with M. abscessus CIP104536 ΔblaMab. Description: microbe, parasite or virus in culture. The class given is cell-based. The settings on record: for MIC: Mycobacteroides abscessus.
Setting [3] is: Inhibitor/Ldtfm molar ratio 1, enzyme 10 μM.
The mark [4] stands for this setting: Inhibitor/Ldtfm molar ratio 2.5, enzyme 10 μM.
The mark [5] stands for this setting: Inhibitor/Ldtfm molar ratio 5, enzyme 10 μM.
[6] abbreviates: Inhibitor/Ldtfm molar ratio 10, enzyme 10 μM.
The mark [7] stands for this setting: Inhibitor/Ldtfm molar ratio 20 (DBO 200 μM, enzyme 10 μM).
Where [8] appears, read: read-out: MIC of amoxicillin against indicated strain.

Chain of BlaC (P9WKD3 39-306): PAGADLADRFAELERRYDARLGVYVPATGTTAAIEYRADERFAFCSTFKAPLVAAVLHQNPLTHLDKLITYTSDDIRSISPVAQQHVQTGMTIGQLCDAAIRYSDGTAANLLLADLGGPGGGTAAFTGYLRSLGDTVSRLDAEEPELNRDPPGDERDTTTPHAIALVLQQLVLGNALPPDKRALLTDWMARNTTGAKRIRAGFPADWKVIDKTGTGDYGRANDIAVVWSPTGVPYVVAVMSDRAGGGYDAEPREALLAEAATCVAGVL
Chain of LdtMt2 (I6Y9J2 55-408): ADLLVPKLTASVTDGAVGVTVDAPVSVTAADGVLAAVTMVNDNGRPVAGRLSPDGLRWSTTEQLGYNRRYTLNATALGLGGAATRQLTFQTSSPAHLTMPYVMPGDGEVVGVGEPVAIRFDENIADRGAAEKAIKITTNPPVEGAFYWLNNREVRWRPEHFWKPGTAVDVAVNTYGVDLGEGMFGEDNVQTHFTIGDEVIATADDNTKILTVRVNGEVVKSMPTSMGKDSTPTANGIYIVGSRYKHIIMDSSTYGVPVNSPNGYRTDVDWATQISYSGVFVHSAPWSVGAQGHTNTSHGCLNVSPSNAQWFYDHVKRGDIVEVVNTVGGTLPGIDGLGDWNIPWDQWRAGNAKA

`O=C(O)CCc1cn(C[C@@H]2CC[C@@H]3CN2C(=O)N3OS(=O)(=O)O)nn1` [Compound 1a.i.14]: the remaining activity at 200 µM on LdtMt2 was determined as 87.1%.

For the molecule `NC(=O)[C@@H]1CC[C@@H]2CN1C(=O)N2OS(=O)(=O)O` [Avibactam, reference compound], the “Fold reduction in the MIC of amoxicillin” value with M. tuberculosis H37Rv and in the test with M. abscessus CIP104536 was “at least 16 fold” in each case. On BlaC, the “Carbamoylation efficacy of β-lactamase BlaC” value is listed as “(2.4 ± 0.8) × 10^1 M^−1 s^−1”. On BlaC (nitrocefin as the substrate, tested up to 100 μM), the “Inhibition of the β-lactamase activity of BlaC (in words)” value is reported as “poorly inhibited”. Moreover, the “Residual activity of Ldtfm following pre-incubation” value (from here on “Residual activity”) is 66.3% in the test with Ldtfm (setting [3]); 36.4% with Ldtfm (setting [4]); 15.8% in the test on Ldtfm (setting [5]); 3.4% with Ldtfm (setting [6]); 2.4% with Ldtfm (setting [7]). Besides, in the test on BlaMab, the “Carbamoylation efficacy of β-lactamase BlaMab” value was “(1.7 ± 0.1) × 10^5 M^−1 s^−1”. In addition, the “Inhibition of the β-lactamase activity of BlaMab (in words)” value in the test with BlaMab (nitrocefin as the substrate) is on record as “most efficacious inhibition”.

As to `C[Si](C)(C)c1cn(C[C@@H]2CC[C@@H]3CN2C(=O)N3OS(=O)(=O)O)nn1` [Compound 2a.i], the remaining activity at 200 µM on LdtMt2 amounted to 72.4%. Also, the “Carbamoylation efficacy of β-lactamase BlaC” value on BlaC is given as <5 × 10^0 M^−1 s^−1. The “Residual activity” value worked out at 88.8% with Ldtfm (setting [3]); 82.7% in the test with Ldtfm (setting [4]); 68.0% in the test with Ldtfm (setting [5]); 50.7% with Ldtfm (setting [6]); 27.2% in the test with Ldtfm (setting [7]). The “Carbamoylation efficacy of β-lactamase BlaMab” value in the test with BlaMab is “(6.2 ± 0.2) × 10^4 M^−1 s^−1”.

Turning to `COCc1cn(C[C@@H]2CC[C@@H]3CN2C(=O)N3OS(=O)(=O)O)nn1` [Compound 1a.i.13], at LdtMt2, the remaining activity at 200 µM was found to be 41.7%.

Consider `O=C1N2C[C@@H](CC[C@H]2Cn2cc(-c3cccnc3)nn2)N1OS(=O)(=O)O` [Compound 1a.i], for which the remaining activity at 200 µM at LdtMt2 is 14.5%. Moreover, the “Fold reduction in the MIC of amoxicillin” value in the test with M. tuberculosis H37Rv and with M. abscessus CIP104536 was “activity similar to that of avibactam” throughout. Also, the MIC of amoxicillin in the test with M. tuberculosis H37Rv worked out at 16 µg/mL; in test [1], 1 µg/mL; with M. abscessus CIP104536 (Table 1), 16 µg/mL; in test [2] (Table 1, M. abscessus CIP104536 ΔblaMab, DBO at 15 μM, listed as None = amoxicillin alone), 4 µg/mL. Moreover, the “Carbamoylation efficacy of β-lactamase BlaC” value on BlaC was <5 × 10^0 M^−1 s^−1. Also, the “Residual activity” value was 88.6% in the test with Ldtfm (setting [3]); 76.1% in the test on Ldtfm (setting [4]); 63.6% with Ldtfm (setting [5]); 34.3% with Ldtfm (setting [6]); 15.8% with Ldtfm (setting [7]). Besides, in the test with BlaMab, the “Carbamoylation efficacy of β-lactamase BlaMab” value is recorded as “(2.2 ± 0.1) × 10^4 M^−1 s^−1”.

Consider `CC1(C)S[C@@H]2[C@H](NC(=O)[C@H](N)c3ccc(O)cc3)C(=O)N2[C@H]1C(=O)O` [amoxicillin, reference compound], for which the MIC in the test on M. tuberculosis H37Rv (read-out: MIC of amoxicillin) is 128 µg/mL; with M. tuberculosis H37Rv (setting [8]), 128 µg/mL; in test [1] (read-out: MIC of amoxicillin), 1 µg/mL; in test [1] (setting [8]) it was 1 µg/mL; with M. abscessus CIP104536 (Table 1, read-out: MIC of amoxicillin), over 256 µg/mL; in the test with M. abscessus CIP104536 (Table 2, read-out: MIC of amoxicillin against indicated strain), over 256 µg/mL. Further, the MIC came to 4 µg/mL in test [2] (CIP104536, read-out: MIC of amoxicillin) and 4 µg/mL in test [2] (CIP104536, read-out: MIC of amoxicillin against indicated strain). Besides, the MIC of amoxicillin with M. abscessus CIP104536 (Table 1) was over 256 µg/mL.

Regarding `O=C1N2C[C@@H](CC[C@H]2Cn2cc(-c3ccccc3)nn2)N1OS(=O)(=O)O` [Compound 1a.i.16], on LdtMt2, the remaining activity at 200 µM worked out at 8.3%.

As to `O=C1N2C[C@@H](CC[C@H]2Cn2cc(CN3CCOCC3)nn2)N1OS(=O)(=O)[O-].[Na+]` [Compound 1a.i.11], the remaining activity at 200 µM on LdtMt2 came out at 73.9%. The “Fold reduction in the MIC of amoxicillin” value in the test on M. tuberculosis H37Rv and in the test with M. abscessus CIP104536 was “less active” throughout. Besides, on BlaC, the “Carbamoylation efficacy of β-lactamase BlaC” value is listed as <5 × 10^0 M^−1 s^−1. The “Residual activity” value is recorded as 92.0% with Ldtfm (setting [3]); 83.9% in the test with Ldtfm (setting [4]); 68.6% in the test on Ldtfm (setting [5]); 51.8% in the test on Ldtfm (setting [6]); 28.1% in the test with Ldtfm (setting [7]). Moreover, in the test on BlaMab, the “Carbamoylation efficacy of β-lactamase BlaMab” value is reported as “(4.4 ± 0.2) × 10^3 M^−1 s^−1”.
